In ChEMBL document CHEMBL1201862, “PubChem BioAssay data set” (2004):
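Assay format: 96-well plates, 48-hour exposure. GI50 marks 50% less growth.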 The source made the active and inactive calls. Cut-off read from the data, not from the text of the source: active = GI50 up to about 1.1 µM and inactive = higher.

Key:
Experiment in all cases: growth of human tumour cells (NCI), 48 h
A549 = test system: A549
ACHN = test system: ACHN
CAKI-1 = test system: CAKI-1
CCRF-CEM = test system: CCRF-CEM
DU-145 = test system: DU-145
EKVX = test system: EKVX
HCC 2998 = test system: HCC 2998
HCT-15 = test system: HCT-15
HL-60 = test system: HL-60
K562 = test system: K562
KM12 = test system: KM12
NCI-H226 = test system: NCI-H226
NCI-H522 = test system: NCI-H522
NCI/ADR-RES = test system: NCI/ADR-RES
PC-3 = test system: PC-3
RXF 393 = test system: RXF 393
SF-539 = test system: SF-539
SNB-75 = test system: SNB-75
TK-10 = test system: TK-10
UO-31 = test system: UO-31

CCN(CCO)CCNc1ccc(C)c2sc3ccccc3c(=O)c12
GI50 (A549): 4.3 µM (inactive)
GI50 (ACHN): 4.26 µM (inactive)
GI50 (CAKI-1): 4.73 µM (inactive)
GI50 (CCRF-CEM): 6.04 µM (inactive)
GI50 (DU-145): 10.2 µM (inactive)
GI50 (EKVX): 12.5 µM (inactive)
GI50 (HCC 2998): 2.28 µM (inactive)
GI50 (HCT-15): 4.15 µM
GI50 (HL-60): 3.37 µM (inactive)
GI50 (K562): 4.31 µM (inactive)
GI50 (KM12): 3.68 µM (inactive)
GI50 (NCI-H226): 4 µM (inactive)
GI50 (NCI-H522): 4.89 µM (inactive)
GI50 (NCI/ADR-RES): 3.07 µM (inactive)
GI50 (PC-3): 3.31 µM (inactive)
GI50 (RXF 393): 1.25 µM (inactive)
GI50 (SF-539): 3.75 µM (inactive)
GI50 (SNB-75): 3.01 µM (inactive)
GI50 (TK-10): 8.81 µM (inactive)
GI50 (UO-31): 5.41 µM (inactive)

CC1(C)N=C(/C(Cl)=[N+](/[O-])C(=O)c2ccc(F)cc2)C(C)(C)N1O
GI50 (A549): 45.8 µM (inactive)
GI50 (ACHN): 19.1 µM (inactive)
GI50 (CAKI-1): 20.2 µM (inactive)
GI50 (CCRF-CEM): 0.466 µM (active)
GI50 (DU-145): 29.6 µM (inactive)
GI50 (EKVX): 20.1 µM (inactive)
GI50 (HCC 2998): 18.8 µM (inactive)
GI50 (HCT-15): 13.4 µM
GI50 (HL-60): 10.8 µM (inactive)
GI50 (K562): 2.53 µM (inactive)
GI50 (KM12): 26.2 µM (inactive)
GI50 (NCI-H226): 22.7 µM (inactive)
GI50 (NCI/ADR-RES): 36.6 µM (inactive)
GI50 (PC-3): 17.5 µM (inactive)
GI50 (RXF 393): 14.8 µM (inactive)
GI50 (SF-539): 23.7 µM (inactive)
GI50 (SNB-75): 16.6 µM (inactive)
GI50 (TK-10): 16.1 µM (inactive)
GI50 (UO-31): 21 µM (inactive)

O=C(O)CCCc1ccc2c(c1)C(C(=O)O)CC2 (stereo not given)
GI50 (A549): > 100 µM (inactive)
GI50 (ACHN): > 100 µM (inactive)
GI50 (CAKI-1): > 100 µM (inactive)
GI50 (CCRF-CEM): > 100 µM (inactive)
GI50 (DU-145): > 100 µM (inactive)
GI50 (EKVX): > 100 µM (inactive)
GI50 (HCC 2998): > 100 µM (inactive)
GI50 (HCT-15): > 100 µM
GI50 (HL-60): > 100 µM (inactive)
GI50 (K562): > 100 µM (inactive)
GI50 (KM12): > 100 µM (inactive)
GI50 (NCI-H226): > 100 µM (inactive)
GI50 (NCI-H522): > 100 µM (inactive)
GI50 (NCI/ADR-RES): > 100 µM (inactive)
GI50 (PC-3): > 100 µM (inactive)
GI50 (RXF 393): > 100 µM (inactive)
GI50 (SF-539): > 100 µM (inactive)
GI50 (SNB-75): > 100 µM (inactive)
GI50 (TK-10): > 100 µM (inactive)
GI50 (UO-31): > 100 µM (inactive)

CCOC(=O)C(Br)(C(N)=O)C1(O)OC(c2ccccc2)=C(Br)C1=O (stereo not given)
GI50 (A549): 26.2 µM (inactive)
GI50 (ACHN): 17.5 µM (inactive)
GI50 (CAKI-1): 19.6 µM (inactive)
GI50 (CCRF-CEM): 2.65 µM (inactive)
GI50 (DU-145): 44.6 µM (inactive)
GI50 (EKVX): 23.2 µM (inactive)
GI50 (HCC 2998): 20 µM (inactive)
GI50 (HCT-15): 16.7 µM
GI50 (HL-60): 38.5 µM (inactive)
GI50 (K562): 22.4 µM (inactive)
GI50 (KM12): > 100 µM (inactive)
GI50 (NCI-H226): 19.2 µM (inactive)
GI50 (NCI-H522): 3.42 µM (inactive)
GI50 (NCI/ADR-RES): 60.3 µM (inactive)
GI50 (PC-3): 19.2 µM (inactive)
GI50 (RXF 393): 19.3 µM (inactive)
GI50 (SF-539): 18.2 µM (inactive)
GI50 (TK-10): 16.7 µM (inactive)
GI50 (UO-31): 21.2 µM (inactive)

Cc1cc(=O)oc2c(C3=NN(C=O)C(c4ccccc4)C3)c(O)ccc12 (stereo not given)
GI50 (A549): 20.8 µM (inactive)
GI50 (ACHN): 14.8 µM (inactive)
GI50 (CAKI-1): > 72.1 µM (inactive)
GI50 (CCRF-CEM): 60.5 µM (inactive)
GI50 (DU-145): > 100 µM (inactive)
GI50 (EKVX): 72.6 µM (inactive)
GI50 (HCC 2998): > 87.7 µM (inactive)
GI50 (HCT-15): > 78.5 µM
GI50 (HL-60): > 100 µM (inactive)
GI50 (K562): > 91 µM (inactive)
GI50 (KM12): > 100 µM (inactive)
GI50 (NCI-H226): > 76 µM (inactive)
GI50 (NCI-H522): 54 µM (inactive)
GI50 (NCI/ADR-RES): 61.9 µM (inactive)
GI50 (PC-3): > 74.1 µM (inactive)
GI50 (RXF 393): 38.2 µM (inactive)
GI50 (SF-539): 52.4 µM (inactive)
GI50 (SNB-75): 3.22 µM (inactive)
GI50 (TK-10): 57.4 µM (inactive)
GI50 (UO-31): 64.3 µM (inactive)

CC1(C)[C@@H]2C[C@H]1C(Cc1cccc(C[C@H]3c4cc(-c5ccccn5)ncc4[C@H]4C[C@@H]3C4(C)C)c1)c1cc(-c3ccccn3)ncc12 (stereo not given in full)
GI50 (A549): 0.518 µM (active)
GI50 (ACHN): 0.328 µM (active)
GI50 (CAKI-1): 1.74 µM (inactive)
GI50 (CCRF-CEM): 0.337 µM (active)
GI50 (DU-145): 0.993 µM (active)
GI50 (HCC 2998): 0.923 µM (active)
GI50 (HCT-15): 1.09 µM
GI50 (HL-60): 0.295 µM (active)
GI50 (K562): 0.435 µM (active)
GI50 (KM12): 0.647 µM (active)
GI50 (NCI-H522): 1.63 µM (inactive)
GI50 (NCI/ADR-RES): 4.06 µM (inactive)
GI50 (PC-3): 0.875 µM (active)
GI50 (RXF 393): 8.41 µM (inactive)
GI50 (SF-539): 1.28 µM (inactive)
GI50 (SNB-75): 5.05 µM (inactive)
GI50 (TK-10): 2.44 µM (inactive)
GI50 (UO-31): 0.785 µM (active)

CC(=O)N1C(Nc2ccccn2)CCN1c1ccccc1 (stereo not given)
GI50 (A549): > 10 µM (inactive)
GI50 (ACHN): 7.36 µM (inactive)
GI50 (CAKI-1): > 10 µM (inactive)
GI50 (CCRF-CEM): > 10 µM (inactive)
GI50 (DU-145): > 10 µM (inactive)
GI50 (EKVX): > 10 µM (inactive)
GI50 (HCC 2998): > 10 µM (inactive)
GI50 (HCT-15): > 10 µM
GI50 (HL-60): > 10 µM (inactive)
GI50 (K562): > 10 µM (inactive)
GI50 (NCI-H226): > 10 µM (inactive)
GI50 (NCI-H522): > 10 µM (inactive)
GI50 (NCI/ADR-RES): > 10 µM (inactive)
GI50 (PC-3): > 10 µM (inactive)
GI50 (RXF 393): > 10 µM (inactive)
GI50 (SF-539): > 10 µM (inactive)
GI50 (SNB-75): > 10 µM (inactive)
GI50 (TK-10): > 10 µM (inactive)
GI50 (UO-31): > 10 µM (inactive)
